Measurements taken from ChEMBL document CHEMBL1135329, “DNA binding ligands with excellent antibiotic potency against drug-resistant gram-positive bacteria” (Bioorg Med Chem Lett, 2002).
Values after ≈ are worked out from the molar mass of the structure shown.

How the values were obtained:
Format in all cases: functional
Candida albicans = assay: Antifungal activity was determined against Candida albicans
Escherichia coli = assay: Binding to the sequence 5'-ACAATTAA-3', a site proximal to the […] RNA polymerase subunit binding site within the Escherichia coli Trc promoter.; settings: read-out: Kd app
Enterococcus faecalis [1] = assay: Antimicrobial activity was determined against vancomycin-resistant Enterococcus faecalis (VREF 51559)
Enterococcus faecalis [2] = assay: Antimicrobial activity was determined against vancomycin-susceptible Enterococcus faecalis (VSEF 29212)
Staphylococcus aureus [3] = assay: Antimicrobial activity was determined against methicillin-resistant Staphylococcus aureus (MRSA 27660)
Staphylococcus aureus [4] = assay: Antimicrobial activity was determined against methicillin-susceptible S. aureus(MSSA 29213)
Streptococcus pneumoniae [5] = assay: Antimicrobial activity was determined against penicillin-resistant Streptococcus pneumoniae (PRSP 51422)
Streptococcus pneumoniae [6] = assay: Antimicrobial activity was determined against penicillin-susceptible Streptococcus pneumoniae (PSSP 49619)

Structure (SMILES)	MIC (Candida albicans) [µg/mL]	Kd (Escherichia coli) [nM]	MIC (Enterococcus faecalis [1]) [µg/mL]	MIC (Enterococcus faecalis [2]) [µg/mL]	MIC (Staphylococcus aureus [3]) [µg/mL]	MIC (Staphylococcus aureus [4]) [µg/mL]	MIC (Streptococcus pneumoniae [5]) [µg/mL]	MIC (Streptococcus pneumoniae [6]) [µg/mL]
Cn1cc(NC(=O)c2cc(NC(=O)c3cc(NC(=O)c4nsc(N5CCCCC5)c4Cl)cn3C)cn2C)cc1C(=O)NCCN1CCOCC1	> 32	4	1 (≈ 1.38 µM)	1 (≈ 1.38 µM)	1 (≈ 1.38 µM)	2 (≈ 2.76 µM)	0.062 (≈ 0.0855 µM)	0.125 (≈ 0.172 µM)
CN(C)CCCNC(=O)c1cc(NC(=O)c2cc(NC(=O)c3cc(NC(=O)c4nsc(NCCCCN)c4Cl)cn3C)cn2C)cn1C	8 (≈ 11.4 µM)	1.04	1 (≈ 1.43 µM)	1 (≈ 1.43 µM)	2 (≈ 2.86 µM)	2 (≈ 2.86 µM)	1 (≈ 1.43 µM)	0.5 (≈ 0.714 µM)
Cn1cc(NC(=O)c2cc(NC(=O)c3cc(NC(=O)c4nsc(NCCc5ccccn5)c4Cl)cn3C)cn2C)cc1C(=O)NCCN1CCOCC1	> 32	0.83	4 (≈ 5.25 µM)	0.5 (≈ 0.656 µM)	2 (≈ 2.62 µM)	1 (≈ 1.31 µM)	0.5 (≈ 0.656 µM)	0.125 (≈ 0.164 µM)
Cn1cc(NC(=O)c2cc(NC(=O)c3cc(NC(=O)c4nsc(NCCN5CCOCC5)c4Cl)cn3C)cn2C)cc1C(=O)NCCc1ccncc1	> 32	4.35	0.25 (≈ 0.328 µM)	0.062 (≈ 0.0813 µM)	0.5 (≈ 0.656 µM)	0.125 (≈ 0.164 µM)	0.5 (≈ 0.656 µM)	0.062 (≈ 0.0813 µM)
Cn1cc(NC(=O)c2cc(NC(=O)c3cc(NC(=O)c4nsc(NCCN5CCOCC5)c4Cl)cn3C)cn2C)cc1C(=O)NCCN1CCOCC1	> 32	9.09	2 (≈ 2.6 µM)	0.25 (≈ 0.325 µM)	4 (≈ 5.19 µM)	1 (≈ 1.3 µM)	0.25 (≈ 0.325 µM)	0.062 (≈ 0.0805 µM)
Cn1cc(NC(=O)c2cc(NC(=O)c3cc(NC(=O)c4nsc(NCCCCN)c4Cl)cn3C)cn2C)cc1C(=O)NCCCNC1CCCCC1	32 (≈ 42.4 µM)	0.43	2 (≈ 2.65 µM)	0.5 (≈ 0.663 µM)	1 (≈ 1.33 µM)	0.5 (≈ 0.663 µM)	4 (≈ 5.3 µM)	1 (≈ 1.33 µM)
Cn1cc(NC(=O)c2cc(NC(=O)c3cc(NC(=O)c4nsc(NCCN5CCOCC5)c4Cl)cn3C)cn2C)cc1C(=O)NCC1CC1	> 32	208	1 (≈ 1.41 µM)	0.5 (≈ 0.703 µM)	8 (≈ 11.2 µM)	16 (≈ 22.5 µM)	0.5 (≈ 0.703 µM)	1 (≈ 1.41 µM)
CN(C)CCCNC(=O)c1cc(NC(=O)c2cc(NC(=O)c3cc(NC(=O)c4nsc(NCCCN)c4Cl)cn3C)cn2C)cn1C	8 (≈ 11.7 µM)	1.74	2 (≈ 2.91 µM)	1 (≈ 1.46 µM)	1 (≈ 1.46 µM)	2 (≈ 2.91 µM)	4 (≈ 5.83 µM)	0.5 (≈ 0.729 µM)
Cn1cc(NC(=O)c2cc(NC(=O)c3cc(NC(=O)c4nsc(NCCc5ccncc5)c4Cl)cn3C)cn2C)cc1C(=O)NCCN1CCOCC1	> 32	0.29	2 (≈ 2.62 µM)	0.25 (≈ 0.328 µM)	1 (≈ 1.31 µM)	1 (≈ 1.31 µM)	0.25 (≈ 0.328 µM)	0.062 (≈ 0.0813 µM)
Cn1cc(NC(=O)c2cc(NC(=O)c3cc(NC(=O)c4nsc(NCC5CC5)c4Cl)cn3C)cn2C)cc1C(=O)NCCN1CCOCC1	> 32	1.01	1 (≈ 1.41 µM)	0.25 (≈ 0.351 µM)	1 (≈ 1.41 µM)	0.5 (≈ 0.703 µM)	0.125 (≈ 0.176 µM)	0.125 (≈ 0.176 µM)
Cn1cc(NC(=O)c2cc(NC(=O)c3cc(NC(=O)c4nsc(NCCCO)c4Cl)cn3C)cn2C)cc1C(=O)NCCN1CCOCC1	> 32	1.03	0.5 (≈ 0.699 µM)	0.125 (≈ 0.175 µM)	2 (≈ 2.8 µM)	1 (≈ 1.4 µM)	0.031 (≈ 0.0433 µM)	0.5 (≈ 0.699 µM)
Cn1cc(NC(=O)c2cc(NC(=O)c3cc(NC(=O)c4nsc(NCCCNC5CCCCC5)c4Cl)cn3C)cn2C)cc1C(=O)NCCCNC1CCCCC1	16 (≈ 19.5 µM)	1.19	2 (≈ 2.43 µM)	2 (≈ 2.43 µM)	1 (≈ 1.22 µM)	1 (≈ 1.22 µM)	0.5 (≈ 0.608 µM)	2 (≈ 2.43 µM)
CCOCCCNC(=O)c1cc(NC(=O)c2cc(NC(=O)c3cc(NC(=O)c4nsc(NCCN5CCOCC5)c4Cl)cn3C)cn2C)cn1C	> 32	83.3	4 (≈ 5.38 µM)	16 (≈ 21.5 µM)	16 (≈ 21.5 µM)	16 (≈ 21.5 µM)	1 (≈ 1.35 µM)	0.5 (≈ 0.673 µM)
CN(C)CCCNC(=O)c1cc(NC(=O)c2cc(NC(=O)c3cc(NC(=O)c4nsc(NCCCCCCCN)c4Cl)cn3C)cn2C)cn1C	> 32	1.3	1 (≈ 1.35 µM)	8 (≈ 10.8 µM)	32 (≈ 43.1 µM)	32 (≈ 43.1 µM)	16 (≈ 21.6 µM)	32 (≈ 43.1 µM)
CCOCCCNc1snc(C(=O)Nc2cc(C(=O)Nc3cc(C(=O)Nc4cc(C(=O)NCCN5CCOCC5)n(C)c4)n(C)c3)n(C)c2)c1Cl	> 32	1.34	2 (≈ 2.69 µM)	0.25 (≈ 0.336 µM)	2 (≈ 2.69 µM)	1 (≈ 1.35 µM)	0.125 (≈ 0.168 µM)	0.25 (≈ 0.336 µM)
CN(C)CCCCNC(=O)c1cc(NC(=O)c2cc(NC(=O)c3cc(NC(=O)c4nsc(NCCCN)c4Cl)cn3C)cn2C)cn1C	0.25 (≈ 0.357 µM)	0.53	0.25 (≈ 0.357 µM)	0.125 (≈ 0.179 µM)	0.25 (≈ 0.357 µM)	0.5 (≈ 0.714 µM)	0.125 (≈ 0.179 µM)	0.064 (≈ 0.0914 µM)
Cn1cc(NC(=O)c2cc(NC(=O)c3cc(NC(=O)c4nsc(NCCCNC5CCCCC5)c4Cl)cn3C)cn2C)cc1C(=O)NCCCCN	4 (≈ 5.3 µM)	2	16 (≈ 21.2 µM)	2 (≈ 2.65 µM)	2 (≈ 2.65 µM)	2 (≈ 2.65 µM)	16 (≈ 21.2 µM)	1 (≈ 1.33 µM)
Cn1cc(NC(=O)c2cc(NC(=O)c3cc(NC(=O)c4nsc(NCCCNC5CCCCC5)c4Cl)cn3C)cn2C)cc1C(=O)NCCN1CCOCC1	16 (≈ 20.1 µM)	0.59	16 (≈ 20.1 µM)	2 (≈ 2.51 µM)	8 (≈ 10 µM)	2 (≈ 2.51 µM)	0.25 (≈ 0.314 µM)	0.062 (≈ 0.0779 µM)
Cn1cc(NC(=O)c2cc(NC(=O)c3cc(NC(=O)c4nsc(NCCN5CCOCC5)c4Cl)cn3C)cn2C)cc1C(=O)NCCCO	> 32	32.1	> 32	32 (≈ 44.7 µM)	–	> 32	1 (≈ 1.4 µM)	32 (≈ 44.7 µM)
Cn1cc(NC(=O)c2cc(NC(=O)c3cc(NC(=O)c4nsc(NCCCCN)c4Cl)cn3C)cn2C)cc1C(=O)NCCN1CCOCC1	8 (≈ 11 µM)	0.37	16 (≈ 22 µM)	4 (≈ 5.49 µM)	4 (≈ 5.49 µM)	4 (≈ 5.49 µM)	0.5 (≈ 0.687 µM)	0.5 (≈ 0.687 µM)
